Data: patent publication US10392389B2, “Heterocyclic compounds for the inhibition of PASK” (BioEnergenix, LLC, priority 2012, dated 2019)

How the values were obtained:
PASK = molecular target: T1, PASK (UniProt #Q96RG2; human recombinant N-terminal GST tagged construct, residues 879-1323) (Homo sapiens, UniProt Q96RG2); assay: PASK ATP Radiochemical Assay; format: biochemical; conditions: 33P-ATP, Myelin Basic Protein substrate, read-out: IC50 Kinase Domain
T1 construct: N-terminal GST tagged construct, residues 879-1323; GST (N); host or cells: insect cells
T1 sequence (Q96RG2 879-1323, stated change not applied): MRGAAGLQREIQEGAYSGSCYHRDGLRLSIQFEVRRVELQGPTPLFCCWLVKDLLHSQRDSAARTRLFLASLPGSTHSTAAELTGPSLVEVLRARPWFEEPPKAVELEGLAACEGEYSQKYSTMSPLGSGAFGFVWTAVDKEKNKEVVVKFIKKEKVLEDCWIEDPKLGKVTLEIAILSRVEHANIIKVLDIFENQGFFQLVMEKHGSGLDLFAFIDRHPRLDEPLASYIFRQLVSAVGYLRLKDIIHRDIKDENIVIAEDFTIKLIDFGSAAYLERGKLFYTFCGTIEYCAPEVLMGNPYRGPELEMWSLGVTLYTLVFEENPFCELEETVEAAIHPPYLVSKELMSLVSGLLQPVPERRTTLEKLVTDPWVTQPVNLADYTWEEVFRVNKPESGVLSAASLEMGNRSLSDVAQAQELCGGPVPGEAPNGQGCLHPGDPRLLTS
In short: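 Insect-cell GST-PASK (residues 879-1323, 5 nM final) phosphorylating 20 μM myelin basic protein with ^33P-ATP (0.01 μCi/μl final). Buffer 20 mM HEPES pH 7.5, 10 mM MgCl2, 1% DMSO. Reaction ran 120 min at room temperature; P81 filter binding and scintillation counting.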

PASK (Invitrogen) = molecular target: T2, PASK (Invitrogen) (Homo sapiens, UniProt Q96RG2); assay: PAS Kinase FRET Assay; format: biochemical; conditions: PAS kinase TR-FRET assay (665 nm/615 nm); read-out: IC50 Kinase Domain
T2 construct: IC50 Kinase Domain; purchased Invitrogen
T2 sequence (Q96RG2 999-1251 limits assumed): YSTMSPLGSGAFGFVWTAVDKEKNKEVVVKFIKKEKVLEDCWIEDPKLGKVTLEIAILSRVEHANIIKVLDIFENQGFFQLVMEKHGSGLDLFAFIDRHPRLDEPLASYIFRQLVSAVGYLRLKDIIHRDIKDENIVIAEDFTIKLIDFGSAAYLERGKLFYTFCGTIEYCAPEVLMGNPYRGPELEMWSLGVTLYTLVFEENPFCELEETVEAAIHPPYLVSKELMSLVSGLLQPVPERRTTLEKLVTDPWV
In short: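 PASK phosphorylates a ULight-peptide with ATP in 50 mM HEPES, 10 mM MgCl2, 1 mM EGTA, 0.01% Tween-20, 2 mM DTT for 2 h at 25° C in the dark. Compounds are added as 4× serial dilutions (top 12×10^−5 M at 4×). After stopping, an Eu anti-phospho-substrate antibody is added for 1 h and TR-FRET is read at 665/615 nm.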

[1] = molecular target: T3, CK2a2 (NP_001887; human full-length protein, GST tagged) (Homo sapiens, UniProt P19784); assay: Biochemical Assay for CK2 Activity; conditions: 33P-ATP radiochemical assay, CK2 sub [RRRDDDSDDD]
T3 construct: human full-length protein, GST tagged; GST; host or cells: insect cells
T3 sequence (P19784 whole entry): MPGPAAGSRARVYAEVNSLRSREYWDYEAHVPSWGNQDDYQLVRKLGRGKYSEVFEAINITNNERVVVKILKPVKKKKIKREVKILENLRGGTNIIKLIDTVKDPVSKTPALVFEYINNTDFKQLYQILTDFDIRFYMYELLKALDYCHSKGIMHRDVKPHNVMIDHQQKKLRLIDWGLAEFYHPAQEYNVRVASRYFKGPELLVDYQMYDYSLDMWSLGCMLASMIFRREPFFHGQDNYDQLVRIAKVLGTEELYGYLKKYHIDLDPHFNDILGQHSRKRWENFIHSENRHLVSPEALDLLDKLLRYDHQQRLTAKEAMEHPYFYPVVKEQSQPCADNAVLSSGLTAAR
Description: Biochemical Assay for CK2 Activity
(§1) Purified CK2a2 (NP_001887; human full-length protein, GST tagged) from insect cells (final concentration 1.2 nM) is added to freshly prepared Base Reaction Buffer containing 20 mM Hepes (pH 7.5), 10 mM MgCl2, 1 mM EGTA, 0.02% Brij35, 0.02 mg/ml BSA, 0.1 mM Na3VO4, 2 mM DTT, 1% DMSO and CK2 sub [RRRDDDSDDD] (20 μM final). Test compounds in DMSO are then added and the mixture, followed by delivery of ^33P-ATP (specific activity 0.01 μCi/μl final) to initiate the reaction. The kinase reaction is incubated for 120 min at room temperature. The entire reaction mixture is washed through onto a P81 Phosphocellulose paper and washed three times for 10 minutes in 75 mM phosphoric acid and once in methanol prior to drying and scintillation counting.

[2] = molecular target: T4, PIM1 (NP_002639; human full-length protein, 6×His tagged) (Homo sapiens, UniProt P11309); assay: Biochemical Assay for PIM1 Activity; conditions: 33P-ATP radiochemical assay, S6K/Rsk2 peptide 2 substrate
T4 construct: human full-length protein, 6×His tagged; 6xHis; host or cells: insect cells
T4 sequence (P11309 whole entry): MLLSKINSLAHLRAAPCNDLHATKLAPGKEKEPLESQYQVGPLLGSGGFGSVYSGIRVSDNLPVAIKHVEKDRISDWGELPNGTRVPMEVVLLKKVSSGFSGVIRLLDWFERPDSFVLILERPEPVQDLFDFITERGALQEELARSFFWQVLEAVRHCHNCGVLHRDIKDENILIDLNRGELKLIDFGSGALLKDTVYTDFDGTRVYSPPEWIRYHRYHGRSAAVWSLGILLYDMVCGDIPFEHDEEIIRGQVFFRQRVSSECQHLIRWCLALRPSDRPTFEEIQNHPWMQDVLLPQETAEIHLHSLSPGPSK
Description: Biochemical Assay for PIM1 Activity
as §1, with “PIM1 (NP_002639;” for “CK2a2 (NP_001887;”, “6×His” for “GST”, “1.0” for “1.2”, “substrate S6K/Rsk2 peptide 2 [KKRNRTLTK]” for “CK2 sub [RRRDDDSDDD]”, “10” for “0.01”

[3] = In vivo pharmacokinetics in the Sprague Dawley rat; conditions: formulation as in Table 5
Description: Pharmacokinetics of a PASK Inhibitor
The in vivo pharmacokinetics of Examples 12, 17, 43, and 51 were evaluated in the Sprague Dawley rat. Blood samples were collected at 0.083, 0.25, 0.5, 1, 2, 4, 6, 8, and 24 hours and the samples were analyzed for test compounds content using LC/MS/MS. The data was submitted to pharmacokinetic analysis using WinNonLin software and the observed and calculated pharmacokinetic parameters are shown in Table 5 for each compound.

IC50 (PASK) | IC50 (PASK (Invitrogen)) | IC50 [1] | IC50 [2] | Cl (clearance) ([3]; IV, 3 mg/kg) | Vss (volume of distribution) ([3]; IV, 3 mg/kg) | t1/2 (half-life) ([3]; IV, 3 mg/kg) | F (oral bioavailability) ([3]; PO, 10 mg/kg) | Tmax (Time to maximum blood concentration after an oral dose) ([3]; PO, 10 mg/kg) | t1/2 (half-life) ([3]; PO, 10 mg/kg) | Compound
≤ 10 µM | ≤ 10 µM | ≤ 10 µM | ≤ 10 µM | 6.19 mL/min/kg | 0.61 L/kg | 8.3 h | 42% | 4 h | 2.12 h | COc1cc(-c2cc(=O)n3ncc(-c4ncc(C)o4)c3[nH]2)ccc1Cl [Example 17, 5-(4-chloro-3-methoxyphenyl)-3-(5-methyl-1,3-oxazol-2-yl)-4H,7H-pyrazolo[1,5-a]pyrimidin-7-one]
– | ≤ 10 µM | – | – | 62 mL/min/kg | 0.71 L/kg | 0.38 h | 1.17% | 0.25 h | 2.62 h | COc1cc(-c2cc(=O)n3ncc(-c4ccnn4C)c3[nH]2)ccc1Cl [Example 51, 5-(4-chloro-3-methoxyphenyl)-3-(1-methyl-1H-pyrazol-5-yl)pyrazolo[1,5-a]pyrimidin-7(4H)-one]
– | ≤ 10 µM | – | – | 8.76 mL/min/kg | 0.35 L/kg | 3.75 h | 46.5% | 0.5 h | 2.38 h | CCn1ncc2cc(-c3cc(=O)n4ncc(-c5ncc(C)o5)c4[nH]3)ccc21 [Example 12, 5-(1-ethyl-1H-indazol-5-yl)-3-(5-methyl-1,3-oxazol-2-yl)-4H,7H-pyrazolo[1,5-a]pyrimidin-7-one]
– | ≤ 10 µM | – | – | 23.9 mL/min/kg | 0.719 L/kg | 1.62 h | 44.7% | 0.5 h | 3.35 h | CCn1ncc2cc(-c3cc(=O)n4ncc(-c5nc(C)no5)c4[nH]3)ccc21 [Example 43, 5-(1-ethyl-1H-indazol-5-yl)-3-(3-methyl-1,2,4-oxadiazol-5-yl)-4H,7H-pyrazolo[1,5-a]pyrimidin-7-one]
